Publication PMC6630699, “Synthesis and Cytotoxicity Evaluation of DOTA-Conjugates of Ursolic Acid” (Molecules, 2019)
“Also recorded” adds a separate entry of the source.

Experiments:
[1] = system: non-malignant mouse fibroblasts NIH 3T3; test: SRB cytotoxicity assay, NIH 3T3; type: cell-based; details: NIH3T3, 72 h of treatment
Text: (§1) Due to cytotoxicity evaluation, the prepared UA-DOTA conjugates were screened in rhodamine B assays employing a series of human tumor cell lines and non-malignant mouse fibroblasts (NIH 3T3).
(§2) The cell lines used are human cancer cell lines: A2780 (ovarian carcinoma), HT29 (colon adenocarcinoma), MCF-7 (breast adenocarcinoma), A375 (melanoma), FaDu (pharynx squamous cell carcinoma) and non-malignant mouse fibroblasts NIH 3T3; all cell lines were obtained from the Department of Oncology (Martin-Luther-University Halle-Wittenberg). Cultures were maintained as monolayers in RPMI 1640 medium with L-glutamine (Capricorn Scientific GmbH, Ebsdorfergrund, Germany) supplemented with 10% heat inactivated fetal bovine serum (Sigma-Aldrich Chemie GmbH, Steinheim, Germany) and penicillin/streptomycin (Capricorn Scientific GmbH, Ebsdorfergrund, Germany) at 37 °C in a humidified atmosphere with 5% CO2.
(§3) The cytotoxicity of the compounds was evaluated using the sulforhodamine-B (Kiton-Red S, ABCR) micro culture colorimetric assay. Cells were seeded into 96-well plates on day 0 at appropriate cell densities to prevent confluence of the cells during the period of experiment. After 24 h, the cells were treated with six different concentrations (1, 3, 7, 12, 20, and 30 µM) minimum. The final concentration of DMSO/DMF never exceeded 0.5%, which was non-toxic to the cells. After a 72-h treatment, the supernatant medium from the 96-well plates was discarded, the cells were fixed with 10% trichloroacetic acid (TCA) and allowed to rest at 4 °C. After 24 h fixation, the cells were washed in a strip washer and dyed with SRB solution (100 µL, 0.4%, in 1% acetic acid) for about 20 min. After dying, the plates were washed four times with 1% acetic acid to remove the excess of the dye and allowed to air-dry overnight. Tris base solution (200 µL, 10 mM) was added to each well and absorbance was measured at λ = 570 nm using a 96 well plate reader (Tecan Spectra, Crailsheim, Germany). The EC50 values were averaged from three independent experiments performed each in triplicate calculated from semi logarithmic dose response curves applying a non-linear 4P Hills-slope equation (GraphPad Prism5; variables top and bottom were set to 100 and 0, respectively).

[2] = system: A375 cells; test: Annexin V-FITC/PI assay (flow cytometry); type: cell-based, human
Method: Approximately 2 × 10^5 cells (A375) were seeded in cell culture flasks (25 cm^2), and the cells were allowed to grow up for 24 h. After removing of the used medium, the substance loaded fresh medium was reloaded (or a blank fresh medium as a control). After 24 h and 48 h, the cells were harvested, centrifuged (1200 rpm, 4 °C), and washed twice with PBS (w/Ca^2+ and Mg^2+, 1 mL). The cells were counted and approximately 1∙10^6 cells were washed with Annexin V binding buffer (BioLegend®, San Diego, USA) and treated with propidium iodide solution (3 µL, 1 mg/mL) and Annexin V-FITC (5 µL, BioLegend®, San Diego, CA, USA) for 15 min in the dark at room temperature. After adding Annexin V binding buffer (400 µL) the suspension was analyzed using Attune® FACS machine. After gating for living cells, the data from detectors BL-1A and BL-3A were collected (20,000 events) in technical triplicates. The assay was performed in duplicates; cell distribution was calculated using Attune® Software (ThermoFisher Scientific, Braunschweig, Germany).

[3] = system: HT29 (colon adenocarcinoma); test: SRB cytotoxicity assay, HT29; type: cell-based, human; details: for EC50: Homo sapiens, HT-29, SRB assay, 72 h of treatment; for Selectivity index SI HT29: SI = EC50 (NIH 3T3)/EC50 (HT29)
Text: as §1, §2, §3

[4] = system: A375 cells; test: Cell cycle investigations (PI, flow cytometry); type: cell-based, human
Method: Approximately 2 × 10^5 cells (A375) were seeded in cell culture flasks (25 cm^2), and the cells were allowed to grow up for 24 h. After removing of the used medium, the substance loaded fresh medium was reloaded (or a blank fresh medium as a control). After 24 h or 48 h, respectively, only the adherent cells were harvested, centrifuged (1200 rpm, 4 °C), and washed twice with PBS ((w/w), 1 mL). The cells were counted and approximately 1 × 10^6 cells were fixed with ethanol (70%, 4 °C, 24 h). After centrifugation (4500 rpm, 4 °C) the cells were washed with PBS ((w/w), 1 mL) and centrifuged. The pellet was resuspended in 1 mL RNAse A containing PI buffer (100µL RNAse (100 mg/mL), 15 µL PI solution (1 mg/mL)) and after incubating for 30 min at room temperature in the dark, cells were analyzed using the Attune® FACS machine; collecting data from the BL-2A channel. Doublet cells were excluded from the measurements by plotting BL-2A against BL-2H. For each cell cycle distribution 20,000 events were collected in technical triplicates, each sample was measured in duplicates. Cell cycle distribution was calculated using ModFitLT™ (Verity Software House, Topsham, ME, USA).

[5] = system: A375 cells; test: AO/PI dye exclusion test (fluorescence microscopy); type: cell-based, human
Method: Morphological characteristics of cell death were analyzed employing an AO/PI assay using human cancer cell line A375. Approx. 2 × 10^5 cells were seeded in cell culture flasks (25 cm^2), and the cells were allowed to grow up for 24 h. After removing of the used medium, the substance loaded fresh medium was reloaded (or a blank new medium as a control). After 24 h and 48 h, the content of the flask was collected and centrifuged (1200 rpm, 4 °C), the pellet was gently suspended in phosphate-buffered saline (PBS (w/Ca^2+ and Mg^2+), 1 mL) and centrifuged again. The PBS was removed, and the pellet gently suspended in PBS (150 µL) again. The analysis of the cells was performed using a fluorescence microscope after having mixed the cell suspension (10 µL) with a solution of AO/PI (5 µg/mL, 10 µL).

[6] = system: A2780 (ovarian carcinoma); test: SRB cytotoxicity assay, A2780; type: cell-based, human; details: for EC50: SRB assay, 72 h of treatment; for Selectivity index SI A2780: SI = EC50 (NIH 3T3)/EC50 (A2780)
Text: as §1, §2, §3

[7] = system: FaDu (pharynx squamous cell carcinoma); test: SRB cytotoxicity assay, FaDu; type: cell-based, human; details: for EC50: Homo sapiens, FaDu, SRB assay, 72 h of treatment; for Selectivity index SI FaDu: SI = EC50 (NIH 3T3)/EC50 (FaDu)
Text: as §1, §2, §3

[8] = system: A375 (melanoma); test: SRB cytotoxicity assay, A375; type: cell-based, human; details: for EC50: Homo sapiens, A-375, SRB assay, 72 h of treatment; for Selectivity index SI A375: SI = EC50 (NIH 3T3)/EC50 (A375)
Text: as §1, §2, §3

[9] = system: MCF-7 (breast adenocarcinoma); test: SRB cytotoxicity assay, MCF-7; type: cell-based, human; details: for EC50: Homo sapiens, MCF7, SRB assay, 72 h of treatment; for Selectivity index SI MCF-7: SI = EC50 (NIH 3T3)/EC50 (MCF-7)
Text: as §1, §2, §3

[10] = system: human tumor cell lines; test: SRB cytotoxicity assay, statements over the whole cell line panel; type: cell-based; details: summary over all tumor cell lines
Text: as §1, §2, §3

Structure (SMILES)	EC50 [1]	EC50 [3]	Selectivity index SI HT29 [3]	EC50 ([6]; Homo sapiens, A2780, 72 h)	Selectivity index SI A2780 [6]	EC50 [7]	Selectivity index SI FaDu [7]	EC50 [8]	Selectivity index SI A375 [8]	EC50 [9]	Selectivity index SI MCF-7 [9]	further results
CC(=O)O[C@H]1CC[C@@]2(C)C(CC[C@]3(C)C2CC=C2C4[C@@H](C)[C@H](C)CC[C@]4(C(=O)N4CCN(C(=O)CN5CCN(CC(=O)OC(C)(C)C)CCN(CC(=O)OC(C)(C)C)CCN(CC(=O)OC(C)(C)C)CC5)CC4)CC[C@]23C)C1(C)C (stereo partly drawn) [compound 22, Tri-tert-butyl 2,2’,2’’-[10-[2-[4-(3β-acetyloxy-urs-12-en-28-oyl)piperazin-1-yl]-2-oxoethyl]-1,4,7,10-tetraazacyclododecane-1,4,7-triyl]triacetate]	4600 ± 1000 nM	5700 ± 500 nM	0.81	1700 nM	2.42	3700 ± 600 nM	1.24	1500 ± 400 nM	3.07	4400 ± 700 nM	1.05	density plots versus control ([2]; A375, 3.0 µM, 24 h): no significant differences in comparison to the control; annexin V-FITC-positive cells ([2]; A375, 3.0 µM, 48 h): 32.9%; apoptotic cells (R4) ([2]; A375, 3.0 µM, 48 h): 17.4%; vital cells (R3) ([2]; A375, 3.0 µM, 48 h, control 86.0%): 66.3%; cell cycle distribution versus control ([4]; A375, 3.0 µM, 48 h): G1/G0, G2/M, and S phase were drastically reduced; also recorded: an increased population of cells with reduced DNA content has been observed in the subG1 region; fluorescence microscopic images versus control ([5]; A375, 3.0 µM, 24 h): no significant differences in comparison to the control; cell morphology in fluorescence microscopic images ([5]; A375, 3.0 µM, 48 h): ruptures of the plasma membrane; EC50 [6]: 1900 ± 300 nM
CC(=O)O[C@H]1CC[C@@]2(C)C(CC[C@]3(C)C2CC=C2C4[C@@H](C)[C@H](C)CC[C@]4(C(=O)NCCNC(=O)CN4CCN(CC(=O)OC(C)(C)C)CCN(CC(=O)OC(C)(C)C)CCN(CC(=O)OC(C)(C)C)CC4)CC[C@]23C)C1(C)C (stereo partly drawn) [compound 24, Tri-tert-butyl 2,2’,2’’-[10-[2-[2-(3β-acetyloxy-urs-12-en-28-oylamino)ethyl]amino-2-oxoethyl]-1,4,7,10-tetraazacyclododecane-1,4,7-triyl]triacetate]	1400 ± 100 nM	2300 ± 300 nM	0.61	1700 ± 100 nM	0.82	2000 ± 200 nM	0.70	2000 ± 100 nM	0.70	1800 ± 100 nM	0.78	annexin V-FITC-positive cells ([2]; A375, 4.0 µM, 24 h): 63%; apoptotic cells (R4) ([2]; A375, 4.0 µM, 24 h): 51.9%; vital cells (R3) ([2]; A375, 4.0 µM, 24 h, control 86.1%): 36.7%; cell cycle distribution versus control ([4]; A375, 4.0 µM, 24 h): decreased number of cells in G1/G0, G2/M, as well as in S phase; also recorded: a large population of cells has been shifted into the subG1 region; EC50 [10]: < 2500 nM; cell morphology in fluorescence microscopic images ([5]; A375, 4.0 µM, 24 h): vital cells (green staining) with some of them having ruptured cell membranes
